Among the targets are CDK2 (Homo sapiens, UniProt P24941); PAK4 (Homo sapiens, UniProt O96013); MAP2K2 (Homo sapiens, UniProt P36507); WEE1 (Homo sapiens, UniProt P30291); CSK (Homo sapiens, UniProt P41240).
Common to all, as to test: biochemical
The target in the next experiment is T1, ADCK1 (Homo sapiens, UniProt Q86TW2).
T1 sequence (Q86TW2 1-530): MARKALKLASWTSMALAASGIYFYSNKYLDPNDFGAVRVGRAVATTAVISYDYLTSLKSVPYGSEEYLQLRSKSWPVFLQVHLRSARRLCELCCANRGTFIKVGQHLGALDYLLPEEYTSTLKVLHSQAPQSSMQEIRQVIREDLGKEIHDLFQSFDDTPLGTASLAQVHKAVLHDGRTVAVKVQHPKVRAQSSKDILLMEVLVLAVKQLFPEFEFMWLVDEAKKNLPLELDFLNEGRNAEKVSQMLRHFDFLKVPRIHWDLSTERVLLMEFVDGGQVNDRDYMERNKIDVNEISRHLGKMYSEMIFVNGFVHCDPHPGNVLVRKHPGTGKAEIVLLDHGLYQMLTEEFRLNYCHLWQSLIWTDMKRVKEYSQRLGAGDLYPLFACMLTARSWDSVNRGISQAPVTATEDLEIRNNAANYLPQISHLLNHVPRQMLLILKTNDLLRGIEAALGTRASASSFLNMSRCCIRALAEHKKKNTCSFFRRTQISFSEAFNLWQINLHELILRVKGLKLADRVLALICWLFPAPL

The target in the next experiment is T2, MAP4K2 (Homo sapiens, UniProt Q12851).
T2 sequence (Q12851 1-820): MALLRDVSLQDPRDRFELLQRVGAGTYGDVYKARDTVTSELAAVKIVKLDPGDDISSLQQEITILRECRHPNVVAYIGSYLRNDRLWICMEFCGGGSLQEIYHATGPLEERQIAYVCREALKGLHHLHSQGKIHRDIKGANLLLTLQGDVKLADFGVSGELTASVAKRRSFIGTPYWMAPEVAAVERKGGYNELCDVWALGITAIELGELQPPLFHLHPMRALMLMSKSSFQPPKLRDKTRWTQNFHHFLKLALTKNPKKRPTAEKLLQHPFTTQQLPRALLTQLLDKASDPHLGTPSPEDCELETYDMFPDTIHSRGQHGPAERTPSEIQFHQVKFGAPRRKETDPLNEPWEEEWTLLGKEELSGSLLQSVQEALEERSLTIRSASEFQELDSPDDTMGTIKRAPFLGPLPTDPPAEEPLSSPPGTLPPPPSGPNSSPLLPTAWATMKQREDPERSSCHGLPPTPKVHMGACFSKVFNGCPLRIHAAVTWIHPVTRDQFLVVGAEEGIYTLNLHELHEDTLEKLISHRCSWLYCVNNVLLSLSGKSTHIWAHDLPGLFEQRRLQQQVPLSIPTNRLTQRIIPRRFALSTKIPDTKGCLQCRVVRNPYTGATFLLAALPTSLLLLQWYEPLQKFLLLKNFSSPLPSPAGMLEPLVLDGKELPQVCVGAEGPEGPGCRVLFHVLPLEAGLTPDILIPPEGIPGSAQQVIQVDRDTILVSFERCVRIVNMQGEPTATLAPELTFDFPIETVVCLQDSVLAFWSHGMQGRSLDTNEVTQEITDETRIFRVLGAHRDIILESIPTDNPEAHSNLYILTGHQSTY

The target in another experiment is T3, PHKG2 (Homo sapiens, UniProt P15735).
T3 sequence (P15735 1-406): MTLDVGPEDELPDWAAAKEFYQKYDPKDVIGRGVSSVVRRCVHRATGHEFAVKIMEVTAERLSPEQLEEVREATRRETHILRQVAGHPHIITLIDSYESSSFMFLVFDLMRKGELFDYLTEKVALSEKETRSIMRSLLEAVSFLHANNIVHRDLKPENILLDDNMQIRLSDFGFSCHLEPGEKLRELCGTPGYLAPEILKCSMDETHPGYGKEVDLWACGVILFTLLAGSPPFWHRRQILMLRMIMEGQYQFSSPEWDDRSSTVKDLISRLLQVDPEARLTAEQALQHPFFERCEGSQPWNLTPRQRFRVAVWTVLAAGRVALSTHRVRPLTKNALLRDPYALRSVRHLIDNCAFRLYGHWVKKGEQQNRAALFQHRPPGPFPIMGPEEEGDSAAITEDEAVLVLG

Another experiment has as its target T4, PRKD3 (Homo sapiens, UniProt O94806).
T4 sequence (O94806 1-890): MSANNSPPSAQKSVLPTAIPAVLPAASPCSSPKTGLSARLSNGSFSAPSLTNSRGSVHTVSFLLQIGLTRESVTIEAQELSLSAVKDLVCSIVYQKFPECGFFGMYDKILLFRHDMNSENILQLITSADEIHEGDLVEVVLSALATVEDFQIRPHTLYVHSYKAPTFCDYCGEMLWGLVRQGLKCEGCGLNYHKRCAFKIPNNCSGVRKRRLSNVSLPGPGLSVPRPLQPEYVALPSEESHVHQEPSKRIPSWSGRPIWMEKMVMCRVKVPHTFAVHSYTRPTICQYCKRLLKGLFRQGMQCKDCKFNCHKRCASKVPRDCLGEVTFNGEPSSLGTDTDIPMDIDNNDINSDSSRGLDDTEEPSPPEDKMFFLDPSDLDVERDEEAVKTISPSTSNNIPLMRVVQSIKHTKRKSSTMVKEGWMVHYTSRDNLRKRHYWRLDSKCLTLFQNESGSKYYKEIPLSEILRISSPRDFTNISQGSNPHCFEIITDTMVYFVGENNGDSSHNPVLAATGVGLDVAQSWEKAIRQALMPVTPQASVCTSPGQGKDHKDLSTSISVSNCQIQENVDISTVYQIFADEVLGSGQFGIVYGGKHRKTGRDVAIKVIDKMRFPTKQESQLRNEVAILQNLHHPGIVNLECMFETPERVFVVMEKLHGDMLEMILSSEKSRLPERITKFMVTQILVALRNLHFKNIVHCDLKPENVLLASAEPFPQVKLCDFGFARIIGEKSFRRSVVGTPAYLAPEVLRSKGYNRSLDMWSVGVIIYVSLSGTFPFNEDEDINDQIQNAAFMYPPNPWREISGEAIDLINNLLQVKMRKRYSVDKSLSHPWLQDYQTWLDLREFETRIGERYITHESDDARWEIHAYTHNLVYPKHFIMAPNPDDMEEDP

Several values for one entry are separate records, joined by “and”; a condition that tells them apart may be missing. Equal values may be shown once.

We go through 3 compounds from article PMC4774911, “Biochemical Screening of Five Protein Kinases from Plasmodium falciparum against 14,000 Cell-Active Compounds” (PLoS ONE, 2016).

Sequence of MAP2K2 (P36507 whole entry): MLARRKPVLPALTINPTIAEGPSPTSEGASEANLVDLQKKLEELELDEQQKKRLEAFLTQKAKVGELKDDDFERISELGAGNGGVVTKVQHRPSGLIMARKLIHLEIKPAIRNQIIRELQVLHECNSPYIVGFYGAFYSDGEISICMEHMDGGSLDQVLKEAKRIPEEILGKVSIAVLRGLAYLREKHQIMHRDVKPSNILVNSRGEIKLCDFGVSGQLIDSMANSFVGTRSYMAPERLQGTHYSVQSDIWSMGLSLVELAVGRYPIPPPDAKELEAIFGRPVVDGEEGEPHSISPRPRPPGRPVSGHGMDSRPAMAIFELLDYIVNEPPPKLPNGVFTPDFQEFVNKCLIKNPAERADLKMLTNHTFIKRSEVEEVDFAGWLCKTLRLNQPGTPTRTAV
Sequence of CSK (P41240 whole entry): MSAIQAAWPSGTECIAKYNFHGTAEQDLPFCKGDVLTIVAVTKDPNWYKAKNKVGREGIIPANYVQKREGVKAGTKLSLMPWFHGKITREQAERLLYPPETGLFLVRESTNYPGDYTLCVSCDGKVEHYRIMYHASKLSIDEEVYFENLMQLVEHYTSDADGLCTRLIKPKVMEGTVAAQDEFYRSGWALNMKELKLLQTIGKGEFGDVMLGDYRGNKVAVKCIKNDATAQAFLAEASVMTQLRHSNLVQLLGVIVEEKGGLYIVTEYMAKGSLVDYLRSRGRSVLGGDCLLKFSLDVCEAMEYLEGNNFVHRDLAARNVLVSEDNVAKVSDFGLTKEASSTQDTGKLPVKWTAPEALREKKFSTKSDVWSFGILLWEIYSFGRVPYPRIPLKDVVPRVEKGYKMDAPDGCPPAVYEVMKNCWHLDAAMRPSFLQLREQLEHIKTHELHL
Sequence of WEE1 (P30291 whole entry): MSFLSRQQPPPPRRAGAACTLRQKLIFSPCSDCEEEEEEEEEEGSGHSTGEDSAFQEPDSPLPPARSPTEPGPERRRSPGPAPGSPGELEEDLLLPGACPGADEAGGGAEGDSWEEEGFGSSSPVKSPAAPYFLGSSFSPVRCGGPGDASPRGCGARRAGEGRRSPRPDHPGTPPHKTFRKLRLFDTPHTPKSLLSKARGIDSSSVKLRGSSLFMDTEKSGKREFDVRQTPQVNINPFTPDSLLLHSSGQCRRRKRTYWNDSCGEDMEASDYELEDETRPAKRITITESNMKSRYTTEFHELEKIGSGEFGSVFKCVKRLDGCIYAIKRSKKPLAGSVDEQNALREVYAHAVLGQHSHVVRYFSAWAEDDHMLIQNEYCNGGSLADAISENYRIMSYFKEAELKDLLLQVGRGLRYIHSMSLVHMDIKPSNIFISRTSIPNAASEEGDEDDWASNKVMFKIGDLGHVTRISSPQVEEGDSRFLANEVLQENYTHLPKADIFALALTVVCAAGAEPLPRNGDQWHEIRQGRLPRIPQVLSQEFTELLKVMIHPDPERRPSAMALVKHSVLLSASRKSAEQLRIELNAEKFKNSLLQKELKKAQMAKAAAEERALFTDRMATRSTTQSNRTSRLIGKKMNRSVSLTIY
Sequence of PAK4 (O96013 whole entry): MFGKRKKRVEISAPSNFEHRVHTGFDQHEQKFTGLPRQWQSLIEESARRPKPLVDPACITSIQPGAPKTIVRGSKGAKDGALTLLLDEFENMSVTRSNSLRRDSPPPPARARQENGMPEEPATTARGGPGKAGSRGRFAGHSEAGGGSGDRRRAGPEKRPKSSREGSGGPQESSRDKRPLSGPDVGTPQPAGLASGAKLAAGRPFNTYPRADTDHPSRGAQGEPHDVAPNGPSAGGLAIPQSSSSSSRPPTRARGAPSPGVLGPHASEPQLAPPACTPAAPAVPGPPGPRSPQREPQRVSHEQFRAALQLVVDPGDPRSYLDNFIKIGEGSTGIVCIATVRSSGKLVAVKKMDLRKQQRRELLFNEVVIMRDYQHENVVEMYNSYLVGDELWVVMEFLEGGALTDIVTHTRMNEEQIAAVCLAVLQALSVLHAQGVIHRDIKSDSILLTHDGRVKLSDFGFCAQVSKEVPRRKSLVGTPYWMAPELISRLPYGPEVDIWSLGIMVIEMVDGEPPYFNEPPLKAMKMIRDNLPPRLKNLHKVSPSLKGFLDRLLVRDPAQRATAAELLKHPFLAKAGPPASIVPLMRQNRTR

A word on the IC50: it is the concentration needed to halve the response being measured. Low readings indicate greater potency in that assay, high ones weaker potency in that assay. With `CN1CCN(c2ccc(Nc3ncc(C#N)c(Nc4ccccc4C(N)=O)n3)cc2)CC1.Cl` [TCMDC-134116], the IC50 at CDK2 was 0.36 µM and 0.35 µM; at PAK4, 0.38 µM and 0.42 µM; at ADCK1, 1 µM; against MAP4K2, 1 µM; at MAP2K2, 0.83 µM and 0.98 µM; against WEE1, 0.048 µM and 0.047 µM. For the same compound, the results for the IC50 against PHKG2, against PRKD3 and against CSK were 2.8 µM, 0.37 µM and 4.1 µM, respectively.

On to `Cl.NCC1(c2nc(-c3ccc(Cl)c(O)c3)c(-c3ccncc3)[nH]2)CCCCC1` [TCMDC-141154], for which the IC50 against CDK2 was greater than 20 µM; at PAK4, 9.1 µM and > 20 µM; on ADCK1 it was greater than 20 µM; on MAP4K2, greater than 20 µM; against MAP2K2, 9 µM and > 20 µM; against WEE1 it was greater than 20 µM. The figures for the IC50 against PHKG2, against PRKD3 and at CSK were greater than 20 µM, 8.7 µM and 4.4 µM, respectively.

As to `CN(C)CC(O)COc1ccc(Nc2ncc([N+](=O)[O-])c(Nc3ccccc3O)n2)cc1.O=C(O)C(F)(F)F` (stereo not drawn) [TCMDC-141399], the IC50 on CDK2 is greater than 20 µM; on PAK4, 9 µM and 6.8 µM; on ADCK1 it was 1.8 µM; at MAP4K2, greater than 20 µM; against MAP2K2, greater than 20 µM; at WEE1, 0.58 µM. The IC50 is greater than 20 µM against PHKG2; 9.1 µM and 7.6 µM at PRKD3; greater than 20 µM at CSK.
